Test results from US4977152A, “Novel tricyclic derivatives which are agonists of cholinergic receptors, and drugs in which they are present” (Societe Anonyme: Sanofi, priority 1986, dated 1990).
Numbering of substitutions follows the chain as printed. Structures can show the parent of a compound that is named as a salt.

Key:
[1] = biological target: T1, M1 central muscarinic cholinergic receptors (Mus musculus, UniProt P12657); test: Antagonism of rotational behavior induced by intrastriatal injection of pirenzepine in mice; assay type: in vivo, mice (female, Swiss, CD 1); settings: ip, mice, i.p. 15 minutes before intrastriatal pirenzepine, 50% reduction in number of rotations, read-out: Pirenzepine antagonism ED50
T1 construct: The intrastriatal injection of PZ into mice induces rotational behavior; from tissue; host or cells: right striatum of living female mice (Swiss, CD 1)
T1 sequence (P12657 1-460): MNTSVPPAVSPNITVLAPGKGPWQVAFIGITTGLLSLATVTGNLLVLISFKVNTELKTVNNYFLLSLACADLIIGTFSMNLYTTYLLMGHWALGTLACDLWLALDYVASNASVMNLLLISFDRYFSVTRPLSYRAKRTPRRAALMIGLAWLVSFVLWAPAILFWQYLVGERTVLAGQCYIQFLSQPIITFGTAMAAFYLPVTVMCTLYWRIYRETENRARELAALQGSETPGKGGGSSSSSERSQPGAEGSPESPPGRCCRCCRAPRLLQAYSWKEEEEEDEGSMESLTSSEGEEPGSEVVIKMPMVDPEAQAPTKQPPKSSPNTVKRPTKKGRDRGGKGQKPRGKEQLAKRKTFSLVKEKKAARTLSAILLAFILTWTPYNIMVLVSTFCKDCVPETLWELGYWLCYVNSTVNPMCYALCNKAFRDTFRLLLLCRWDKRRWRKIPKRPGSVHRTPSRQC
Description: Pirenzepine (PZ) is a specific antagonist of M1 central muscarinic cholinergic receptors. The intrastriatal injection of PZ into mice induces rotational behavior. The antagonism of this behavior by the products according to the invention was studied.
The products according to the invention are injected intraperitoneally (i.p.) after solubilization in distilled water or suspension in a 5% solution of gum arabic. The control animals receive an injection of the pure solvent under the same conditions.
The animals used are female mice (Swiss, CD 1, Charles River, France) with a body weight of between 25 and 30 grams.
Pirenzepine is dissolved in a phosphate buffer; the pH of the solution is 6.
The products to be studied or their solvents are injected intraperitoneally, in a volume of 0.4 ml per 20 g of body weight, 15 minutes before a direct injection of pirenzepine at a dose of […] into the right striatum of the mouse, according to the method described by p.
The number of contralateral rotations (rotations in the opposite direction to the side injected) was counted for three 2-minute periods after the injection of pirenzepine: minutes 2 to 4, 8 to 10 and 13 to 15. Each treatment includes 3 to 4 doses and 10 animals per dose. For each treatment, the total number of rotations and the percentage antagonism compared with the control group are calculated.

[2] = biological target: T2, M1-type muscarinic cholinergic receptor (Rattus norvegicus, UniProt P08482); test: Test for affinity for the M1-type muscarinic cholinergic receptor: displacement of [3H]pirenzepine on rat hippocampus homogenate; assay type: binding
T2 sequence (P08482 1-460): T1 sequence (P12657 1-460) with P309S
Description: (§1) The M1 -type receptors are concentrated in certain areas of the brain, such as the hippocampus, the cerebral cortex and the striatum, and also in the sympathetic ganglia. These binding sites can be selectively labeled with [^3 H]pirenzepine ([^3 H]PZ). The M2 -type receptors predominate in the heart and ileum and can be labeled with [^3 H]N-methylscopolamine ([^3 H]NMS). To determine the selectivity of our molecules towards the M1 and M2 sites, we studied their interaction in vitro with [^3 H]PZ and [^3 H]NMS bound with a high affinity to membranes of rat hippocampus and membranes of smooth muscle of guinea-pig ileum, respectively.
The interaction of the molecules with M1 -type muscarinic receptors was studied by in vitro measurement, on a homogenate of rat hippocampus, of the displacement of tritiated pirenzepine ([^3 H]PZ) from its specific binding sites. Aliquots (10 μl) of a 5% (w/v) homogenate of rat hippocampus in an Na2 HPO4 buffer (50 mM, pH 7.40) are incubated for 2 h at 4° C. in the presence of [^3 H]pZ ([…]; final concentration: 1 nM) and increasing concentrations of products to be studied. The final volume is 2 ml. The reaction is stopped by centrifugation for 10 min at 50,000 × g. After decantation and washing of the residues, the bound radioactivity is counted by liquid scintillation. The non-specific binding is determined in the presence of 10 μmol/l of atropine sulfate. The 50% inhibitory concentration (IC50) is determined graphically (Ref.: Watson J. D., Roeskoe W. R. and Yamamura H.1., Life Sci., 31, 2019-2029, 1982).
(§2) Table 4 indicates the affinities of the products of the invention for M1 and M2 receptors. The results are expressed as 50% inhibitory concentrations (IC50), i.e. the concentration (in μM) which causes a 50% displacement placement of the tritiated ligand bound to the membrane receptors. The IC50 for displacement of ^3 H-pirenzepine represents the affinity for the M1 receptor; the IC50 for displacement of 3H-NMS represents the affinity for the M2 receptor.

[3] = biological target: T3, M2-type muscarinic cholinergic receptor (Cavia porcellus, UniProt H0VRN8); test: Test for affinity for the M2-type muscarinic cholinergic receptor: displacement of [3H]N-methylscopolamine on smooth muscle of guinea-pig ileum; assay type: binding; settings: guinea-pig ileum smooth muscle homogenate, 0.3 nM [3H]NMS, 20 min at 30° C., pH 7.5
T3 construct: on a homogenate of smooth muscle of guinea-pig ileum; from tissue; host or cells: guinea-pig ileum smooth muscle homogenate
T3 sequence (H0VRN8 1-466): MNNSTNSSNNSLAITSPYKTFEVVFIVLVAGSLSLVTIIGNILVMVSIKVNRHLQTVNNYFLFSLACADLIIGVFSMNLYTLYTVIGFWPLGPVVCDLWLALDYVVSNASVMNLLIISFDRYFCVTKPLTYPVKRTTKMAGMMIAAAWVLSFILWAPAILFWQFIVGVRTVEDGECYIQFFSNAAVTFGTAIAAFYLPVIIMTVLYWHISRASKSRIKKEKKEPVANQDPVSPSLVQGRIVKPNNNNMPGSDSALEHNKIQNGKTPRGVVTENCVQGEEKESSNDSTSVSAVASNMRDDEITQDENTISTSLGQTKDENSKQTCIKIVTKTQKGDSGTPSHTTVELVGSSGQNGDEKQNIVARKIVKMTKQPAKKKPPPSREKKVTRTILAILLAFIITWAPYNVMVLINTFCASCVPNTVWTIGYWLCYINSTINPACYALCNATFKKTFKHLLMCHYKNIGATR
Description: as §1
The interaction with M2 -type muscarinic receptors was studied by in vitro measurement, on a homogenate of smooth muscle of guinea-pig ileum, of the displacement of tritiated N-methylscopolamine ([^3 H]NMS) from its specific binding sites. Aliquots (50 μl) of a 0.625% (w/v) homogenate of smooth muscle of guinea-pig ileum in MEPES buffer (20 mM) containing NaCl (100 mM) and MgCl2 (10 mM) (final pH: 7.5) are incubated for 20 min at 30° C. in the presence of [^3 H]NMS ([…]; final concentration: 0.3 nM) and increasing concentrations of products to be tested. The final volume is 1 ml. The reaction is stopped by centrifugation for 5 min at 15,000 × g. The non-specific binding is determined in the presence of 10 μmol/l of atropine sulfate (Ref.: Hammer R., Berrie C. P., Birdsall N. I. M., Burgen A. S. V. and Hulme E. C., Nature, 283, 90-92, 1980; Hulme E. C., Birdsall N.1.M., Burgen A. S. V. and Mettha P., Mol. pharmacol., 14, 737-750, 1978).
as §2

## CN1CCC(Nc2cc3c(nn2)-c2ccccc2CCC3)CC1 [SR 96093 A, 3-(1-Methylpiperidin-4-yl)amino]-6,7-dihydro-5H-benzocyclohepta[5,6-c]pyridazine dihydrochloride]
[1]
  ED50: 15 mg/kg
[2]; rat hippocampus homogenate, 1 nM [3H]PZ, 2 h at 4° C., pH 7.40
  IC50: 1.2 µM
[2]; ratio of IC50 M2 (3H-NMS, guinea-pig ileum) to IC50 M1 (3H-pirenzepine, rat hippocampus)
  r = (M2 /M1): 42
[3]
  IC50: 50 µM
